Reference: patent US20220324835A1 (Nurix Therapeutics, Inc., priority 2018, published 2022)
Read-outs that look alike come from different tables or passages of the source.

How the values were obtained:
primary human NK cells = assay: NK cell activation assessed by cytokine secretion (coculture with K562 NucRed target cells); format: cell-based
Outline: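 Read-out is cytokine secretion (IFNγ, TNFα, MIP1β; ELISA or Luminex) as fold over coculture without inhibitor, >2.0-fold taken as positive. Donor NK cells, IL-2 primed (60 ng/mL) overnight, received compound 1 h ahead (e.g. 0.1–10 μM, DMSO <0.1%) and were mixed 6 h with K562 NucRed targets at e.g. 5:1, 1:1, 1:5.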

T-cell [1] = assay: CD25 cell surface staining on T-cells co-stimulated with anti-CD3 and anti-CD28 antibody (Biological Example 2); format: cell-based, human; settings: Homo sapiens, T-cell, primary human total T-cells
Outline: (§1)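 No assay protocol given; T-cells stimulated with anti-CD3 alone or anti-CD3 plus anti-CD28, with or without Cbl-b inhibitor. Activation read as IL-2 secretion or CD25 surface staining, expressed as fold over baseline from uninhibited cells […].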

Cbl-b = Cbl-b (Homo sapiens, UniProt Q13191); assay: Cbl-b inhibition assay (Cbl-b activity assay, FRET, Biological Example 1; 100 mM NaCl, 60 nM Src kinase); format: biochemical; settings: upper bound stated in text lists; read-out: IC50 values in the Cbl-b inhibition assay of Biological Example 1
Outline: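 Inhibition is read as loss of FRET signal. The signal arises when Src-phosphorylated, N-terminal biotinylated Avi-Cbl-b (captured by streptavidin-terbium) binds UbcH5B carrying covalently linked Bodipy-Fluorescein-tagged ubiquitin.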

T-cell [2] = assay: IL-2 secretion from T-cells co-stimulated with anti-CD3 and anti-CD28 antibody (Biological Example 2); format: cell-based, human; settings: Homo sapiens, T-cell, primary human total T-cells
Outline: as §1

[3] = K562, 1:1 E/T, read-out: IFNγ secretion
[4] = K562, 1:1 E/T, read-out: MIP1β secretion
[5] = K562, 1:1 E/T, read-out: TNFα secretion
[6] = K562, 5:1 E/T, read-out: IFNγ secretion
[7] = K562, 5:1 E/T, read-out: MIP1β secretion
[8] = K562, 5:1 E/T, read-out: TNFα secretion
[9] = 0.3 μM compound, baseline = anti-CD3/anti-CD28 stimulated cells without inhibitor, read-out: CD25 staining, Anti-CD3/Anti-CD28 stimulation, fold change over baseline
[10] = 1 μM compound, baseline = anti-CD3/anti-CD28 stimulated cells without inhibitor, read-out: CD25 staining, Anti-CD3/Anti-CD28 stimulation, fold change over baseline
[11] = 4 μM compound, baseline = anti-CD3/anti-CD28 stimulated cells without inhibitor, read-out: CD25 staining, Anti-CD3/Anti-CD28 stimulation, fold change over baseline
[12] = 0.3 μM compound, baseline = anti-CD3/anti-CD28 stimulated cells without inhibitor, read-out: IL-2 secretion, Anti-CD3/Anti-CD28 stimulation, fold change over baseline
[13] = 1 μM compound, baseline = anti-CD3/anti-CD28 stimulated cells without inhibitor, read-out: IL-2 secretion, Anti-CD3/Anti-CD28 stimulation, fold change over baseline
[14] = 4 μM compound, baseline = anti-CD3/anti-CD28 stimulated cells without inhibitor, read-out: IL-2 secretion, Anti-CD3/Anti-CD28 stimulation, fold change over baseline

Cbl-b, sequence (Q13191 36-427): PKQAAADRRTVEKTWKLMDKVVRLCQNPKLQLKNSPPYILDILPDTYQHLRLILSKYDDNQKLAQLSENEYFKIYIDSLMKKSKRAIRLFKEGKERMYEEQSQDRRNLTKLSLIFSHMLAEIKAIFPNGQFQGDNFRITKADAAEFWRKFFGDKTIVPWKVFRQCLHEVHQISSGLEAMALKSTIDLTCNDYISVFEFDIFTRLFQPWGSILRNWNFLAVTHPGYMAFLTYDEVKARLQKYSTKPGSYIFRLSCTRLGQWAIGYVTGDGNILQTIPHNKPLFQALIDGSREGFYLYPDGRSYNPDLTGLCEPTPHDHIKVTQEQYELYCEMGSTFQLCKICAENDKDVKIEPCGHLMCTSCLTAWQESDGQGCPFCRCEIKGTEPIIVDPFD

Row | Structure (SMILES) | fold induction at 1 µM (primary human NK cells; [3]) | fold induction at 1 µM (primary human NK cells; [4]) | fold induction at 1 µM (primary human NK cells; [5]) | fold induction at 10 µM (primary human NK cells; [3]) | fold induction at 10 µM (primary human NK cells; [4]) | fold induction at 10 µM (primary human NK cells; [5]) | fold induction at 1 µM (primary human NK cells; [6]) | fold induction at 1 µM (primary human NK cells; [7]) | fold induction at 1 µM (primary human NK cells; [8]) | fold induction at 10 µM (primary human NK cells; [6]) | fold induction at 10 µM (primary human NK cells; [7]) | fold induction at 10 µM (primary human NK cells; [8]) | fold induction at 0.3 µM (T-cell [1]; [9]) | fold induction at 1 µM (T-cell [1]; [10]) | fold induction at 4 µM (T-cell [1]; [11]) | IC50 (Cbl-b) [µM] | fold induction at 0.3 µM (T-cell [2]; [12]) | fold induction at 1 µM (T-cell [2]; [13]) | fold induction at 4 µM (T-cell [2]; [14]) | other results
1 | Cn1cnnc1C(F)(F)[C@](C)(F)c1cccc(N2Cc3c(cc(CN4CCC(F)(F)C4)cc3C(F)(F)F)C2=O)c1 [Compound 448, (R)-6-((3,3-difluoropyrrolidin-1-yl)methyl)-2-(3-(1,1,2-trifluoro-1-(4-methyl-4H-1,2,4-triazol-3-yl)propan-2-yl)phenyl)-4-(trifluoromethyl)isoindolin-1-one] | 1.01 to 2 | 1.01 to 2 | 1.01 to 2 | > 5 | 2.01 to 5 | 2.01 to 5 | 1.01 to 2 | 1.01 to 2 | 1.01 to 2 | > 5 | 2.01 to 5 | 2.01 to 5 | 1.01 to 1.3 | 1.01 to 1.3 | 1.31 to 1.5 | ≤ 0.1 | 1.01 to 2.5 | 2.51 to 5 | > 7.5 | –
2 | Cn1cnnc1C(F)(F)[C@](C)(F)c1cccc(N2Cc3c(cc(CN4CC[C@H](F)C4)cc3C(F)(F)F)C2=O)c1 [Compound 447, 6-(((S)-3-fluoropyrrolidin-1-yl)methyl)-2-(3-((R)-1,1,2-trifluoro-1-(4-methyl-4H-1,2,4-triazol-3-yl)propan-2-yl)phenyl)-4-(trifluoromethyl)isoindolin-1-one] | 2.01 to 5 | < 1 | 2.01 to 5 | > 5 | 1.01 to 2 | 2.01 to 5 | > 5 | 1.01 to 2 | 2.01 to 5 | > 5 | 2.01 to 5 | > 5 | 1.31 to 1.5 | 1.51 to 1.75 | 1.51 to 1.75 | ≤ 0.1 | 2.51 to 5 | > 7.5 | > 7.5 | –
3 | C[C@H](Cc1nncn1C)c1cccc(NC(=O)c2cc(C3CC3)cc(C(F)(F)F)n2)c1 [Compound 191, (R)-4-cyclopropyl-N-(3-(1-(4-methyl-4H-1,2,4-triazol-3-yl)propan-2-yl)phenyl)-6-(trifluoromethyl)picolinamide] | 2.01 to 5 | 1.01 to 2 | 2.01 to 5 | 2.01 to 5 | 1.01 to 2 | 1.01 to 2 | 2.01 to 5 | 1.01 to 2 | 2.01 to 5 | > 5 | 1.01 to 2 | 2.01 to 5 | – | – | – | ≤ 0.1 | – | – | – | fold induction at 0.3 µM (T-cell [1]; fold change over baseline, 0.3 μM Cbl-b inhibitor, read-out: CD25 staining Anti-CD3/Anti-CD28 stimulation): 1.31 to 1.5; fold induction at 1 µM (T-cell [1]; fold change over baseline, 1 μM Cbl-b inhibitor, read-out: CD25 staining Anti-CD3/Anti-CD28 stimulation): 1.51 to 1.75; fold induction at 4 µM (T-cell [1]; fold change over baseline, 4 μM Cbl-b inhibitor, read-out: CD25 staining Anti-CD3/Anti-CD28 stimulation): 1.51 to 1.75; fold induction at 0.3 µM (T-cell [2]; fold change over baseline, 0.3 μM Cbl-b inhibitor, read-out: IL-2 secretion Anti-CD3/Anti-CD28 stimulation): 2.51 to 5; fold induction at 1 µM (T-cell [2]; fold change over baseline, 1 μM Cbl-b inhibitor, read-out: IL-2 secretion Anti-CD3/Anti-CD28 stimulation): 5 to 7.5; fold induction at 4 µM (T-cell [2]; fold change over baseline, 4 μM Cbl-b inhibitor, read-out: IL-2 secretion Anti-CD3/Anti-CD28 stimulation): > 7.5
